This is an account of results in PMC10308197 (Cell Insight, 2023).

By Kd is commonly meant the constant that tells how readily two partners part at equilibrium. A high value points to weaker binding.

Assay [1] deals with T1, METTL9 (Homo sapiens, UniProt Q9H1A3). The assay can be described thus: Isothermal titration calorimetry. The class given is binding. (In general: ITC needs no label: the signal is the heat of the interaction.)
Target sequence in this assay (Q9H1A3 whole entry): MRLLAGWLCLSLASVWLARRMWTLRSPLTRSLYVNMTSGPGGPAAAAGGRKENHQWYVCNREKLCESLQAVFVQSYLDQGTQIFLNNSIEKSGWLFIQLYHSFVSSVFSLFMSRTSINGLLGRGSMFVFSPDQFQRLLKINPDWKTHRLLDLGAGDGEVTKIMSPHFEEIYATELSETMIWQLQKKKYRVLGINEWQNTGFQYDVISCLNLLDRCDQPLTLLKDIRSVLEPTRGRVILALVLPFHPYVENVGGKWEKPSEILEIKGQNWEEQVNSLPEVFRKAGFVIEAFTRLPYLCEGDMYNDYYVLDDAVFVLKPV
In assay [2] the target is T1, METTL9. The class given is biochemical. To be noted: mono-methylated product monitored, N = 3.
Target sequence in this assay (Q9H1A3 19-318): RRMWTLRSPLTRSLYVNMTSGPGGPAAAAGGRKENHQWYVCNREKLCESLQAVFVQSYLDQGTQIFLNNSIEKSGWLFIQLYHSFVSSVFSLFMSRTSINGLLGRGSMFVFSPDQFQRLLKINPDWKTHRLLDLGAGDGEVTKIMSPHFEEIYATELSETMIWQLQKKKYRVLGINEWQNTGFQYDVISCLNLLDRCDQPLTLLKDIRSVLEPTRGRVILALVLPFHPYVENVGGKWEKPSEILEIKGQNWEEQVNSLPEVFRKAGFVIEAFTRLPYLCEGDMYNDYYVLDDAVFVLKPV
Another assay relates to METTL9 mutants. Kind of assay: ITC of mutant METTL9 titrated with SAH. To be noted: METTL9 T173A, T115A and N118A (range over the three mutants). The class given is binding, human.
The next assay has as its target D213S or D213N. Kind of assay: ITC.
The target in another assay is T115A, V241G, and C297A. The assay can be described thus: ITC.
In another assay the target is METTL9 D213S (human, UniProt Q9H1A3 19-318, D213S). Kind of assay: ITC.
METTL9 D213S, sequence (Q9H1A3 19-318 D213S): as the sequence (Q9H1A3 19-318) above, with D195S counted along it
Another assay concerns the target METTL9 D213N (human, UniProt Q9H1A3 19-318, D213N). The assay can be described thus: ITC.
Another assay has as its target METTL9 T115A (human, UniProt Q9H1A3 19-318, T115A). Kind of assay: ITC.

METTL9 T115A, sequence (Q9H1A3 19-318 T115A): as the sequence (Q9H1A3 19-318) above, with T97A counted along it
METTL9 D213N, sequence (Q9H1A3 19-318 D213N): as the sequence (Q9H1A3 19-318) above, with D195N counted along it

Take `C[S+](CC[C@H](N)C(=O)[O-])C[C@H]1O[C@@H](n2cnc3c(N)ncnc32)[C@H](O)[C@@H]1O` (some centres unmarked) [SAM, S-adenosylmethionine]: on METTL9 [1], the Kd was 1.6 µM. In other words, the single-digit micromolar range.
In the case of `[Cl-].[Cl-].[Zn+2]` [ZnCl2], the “effect on histidine methylation of SLC39A7_55-70 by METTL9” value on METTL9 [2] (0.5 mM ZnCl2 added) is reported as “substantially inhibited”.
Consider `Nc1ncnc2c1ncn2[C@@H]1O[C@H](CSCC[C@H](N)C(=O)O)[C@@H](O)[C@H]1O` [SAH, S-adenosylhomocysteine], for which, in the assay on METTL9 mutants, the “decrease in SAH binding relative to wild type” value was 2–10 fold. For the same molecule, the Kd on METTL9 [1] was 3.1 µM.
Molecule Ac-HTHESWIHG-NH2 [SLC39A7_66-74] displayed a Kd on METTL9 [1] of 6.7 µM.
Consider `O=C(O)CN(CCN(CC(=O)O)CC(=O)O)CC(=O)O` [EDTA, ethylenediaminetetraacetic acid], for which the “effect on METTL9 enzymatic activity towards SLC39A7_55-70 in presence of zinc” value on METTL9 [2] (zinc ions removed by EDTA) is on record as “completely restored”.
HTHESIWHG [SLC39A7_(66-74) peptide] had a fold weakening of binding against wild-type METTL9 in the assay with D213S or D213N of 4 to 6 fold. Further, in the assay with T115A, V241G, and C297A, the fold reduction of binding against wild-type METTL9 was in the range of 6 to 10 fold. For the same molecule, the binding result with METTL9 D213S, with METTL9 D213N and in the assay with METTL9 T115A was “binds” in each case.
